From patent US20230167088A1, “1-PYRAZINYLPYRAZOLYL-3-OXYALKYL ACIDS AND THEIR DERIVATIVES, AND THEIR USE FOR CONTROL OF UNDESIRED PLANT GROWTH” (BAYER AKTIENGESELLSCHAFT, priority 2020, published 2023)

Key:
STEME [1] = assay: Herbicidal post-emergence action 1a (greenhouse pots, visual rating); assay type: in vivo, Stellaria media; settings: Dosage 320 g/ha; rated visually about 3 weeks after treatment; 100% = plants have died, 0% = like control plants
Description: (§1) [table] a) Seeds of monocotyledonous and dicotyledonous weeds and crop plants are placed in sandy loam in plastic or organic plant pots, covered with soil and cultivated in a greenhouse under controlled growth conditions. 2 to 3 weeks after sowing, the test plants are treated at the one-leaf stage. The compounds of the invention, formulated in the form of wettable powders (WP) or as emulsion concentrates (EC), are then sprayed onto the green parts of the plants as aqueous suspension or emulsion with addition of 0.5% additive at a water application rate of 600 1/ha (converted). After the test plants have been kept in the greenhouse under optimum growth conditions for about 3 weeks, the activity of the preparations is rated visually in comparison to untreated controls. For example, 100% activity=the plants have died, 0% activity=like control plants. Tables A1 to A15 below show the effects of selected compounds of the general formula (I) according to Tables 1 and 2 on various harmful plants and an application rate corresponding to 320 g/ha and/or 80 g/ha, which were obtained by the experimental procedure mentioned above.

STEME [2] = assay: Herbicidal post-emergence action 1b (twin sowing, 1280 g/ha); assay type: in vivo, Stellaria media; settings: dosage 1280 g/ha, visual rating about 3 weeks after treatment
Method in brief: (§2)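 Greenhouse weed pairs (mono- with dicotyledonous) were treated 2–3 weeks after sowing, at one leaf, using an aqueous spray at 600 L/ha carrying 0.5% additive. Percent activity, judged by eye against untreated plants, was recorded roughly 3 weeks post-application.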

AMARE [3] = assay: Herbicidal pre-emergence action 2b (doubly sown, 1280 g/ha); assay type: in vivo, Amaranthus retroflexus; settings: doubly sown pots, dosage 1280 g/ha, visual scoring after about 3 weeks
Method in brief: (§3)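 Compounds were sprayed pre-emergence as wettable powders or emulsion concentrates onto soil covering freshly sown weed seeds, two species per pot. Percent activity was judged by eye roughly 3 weeks later versus untreated plants.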

ALOMY = assay: Herbicidal post-emergence action 1a (greenhouse pots, visual rating); assay type: in vivo, Alopecurus myosuroides; settings: Dosage 320 g/ha; rated visually about 3 weeks after treatment; 100% = plants have died, 0% = like control plants
Method in brief: (§4)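 Visual scoring versus untreated plants (100% = plants dead, 0% = as control) followed roughly 3 weeks in the greenhouse after treatment. Plants grown in sandy loam pots had been sprayed on green parts at the one-leaf stage, 2–3 weeks post-sowing, with aqueous WP/EC preparations containing 0.5% additive, 600 l/ha, at 320 and/or 80 g/ha.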

ECHCG [4] = assay: Herbicidal pre-emergence action 2b (doubly sown, 1280 g/ha); assay type: in vivo, Echinochloa crus-galli; settings: doubly sown pots, dosage 1280 g/ha, visual scoring after about 3 weeks
Method in brief: as §3

MATIN [5] = assay: as above; assay type: in vivo, Matricaria inodora; settings: doubly sown pots, dosage 1280 g/ha, visual scoring after about 3 weeks
Method in brief: as §3

VERPE [6] = assay: Herbicidal pre-emergence action 2a (greenhouse pots, visual scoring); assay type: in vivo, Veronica persica; settings: dosage 320 g/ha, visual scoring after about 3 weeks vs untreated controls
Method in brief: (§5)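 Pre-emergence soil-surface spray: WP/EC, 0.5% additive, 600 l/ha water, 320 and/or 80 g/ha. Greenhouse ~3 wk. Visual % damage vs untreated (100% = plants dead, 0% = like control).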

PHBPU = assay: Herbicidal post-emergence action 1a (greenhouse pots, visual rating); assay type: in vivo, Pharbitis purpurea; settings: dosage 320 g/ha, visual rating about 3 weeks after treatment
Method in brief: as §4

VERPE [7] = assay: as above; assay type: in vivo, Veronica persica; settings: dosage 320 g/ha, visual rating about 3 weeks after treatment
Method in brief: as §4

MATIN [8] = assay: as above; assay type: in vivo, Matricaria inodora; settings: dosage 320 g/ha, visual rating about 3 weeks after treatment
Description: as §1

POAAN [9] = assay: Herbicidal post-emergence action 1b (twin sowing, 1280 g/ha); assay type: in vivo, Poa annua; settings: dosage 1280 g/ha, visual rating about 3 weeks after treatment
Method in brief: as §2

ECHCG [10] = assay: as above; assay type: in vivo, Echinochloa crus-galli; settings: dosage 1280 g/ha, visual rating about 3 weeks after treatment
Method in brief: as §2

AMARE [11] = assay: Herbicidal pre-emergence action 2a (greenhouse pots, visual scoring); assay type: in vivo, Amaranthus retroflexus; settings: dosage 320 g/ha, visual scoring after about 3 weeks vs untreated controls
Method in brief: as §5

MATIN [12] = assay: as above; assay type: in vivo, Matricaria inodora; settings: dosage 320 g/ha, visual scoring after about 3 weeks vs untreated controls
Method in brief: as §5

POAAN [13] = assay: Herbicidal pre-emergence action 2b (doubly sown, 1280 g/ha); assay type: in vivo, Poa annua; settings: doubly sown pots, dosage 1280 g/ha, visual scoring after about 3 weeks
Method in brief: as §3

ECHCG [14] = assay: Herbicidal post-emergence action 1a (greenhouse pots, visual rating); assay type: in vivo, Echinochloa crus-galli; settings: Dosage 320 g/ha; rated visually about 3 weeks after treatment; 100% = plants have died, 0% = like control plants
Method in brief: as §4

MATIN [15] = assay: Herbicidal post-emergence action 1b (twin sowing, 1280 g/ha); assay type: in vivo, Matricaria inodora; settings: dosage 1280 g/ha, visual rating about 3 weeks after treatment
Method in brief: as §2

AMARE [16] = assay: Herbicidal post-emergence action 1a (greenhouse pots, visual rating); assay type: in vivo, Amaranthus retroflexus; settings: dosage 320 g/ha, visual rating about 3 weeks after treatment
Method in brief: as §4

VIOTR = assay: as above; assay type: in vivo, Viola tricolor; settings: dosage 320 g/ha, visual rating about 3 weeks after treatment
Method in brief: as §4

STEME [17] = assay: Herbicidal pre-emergence action 2b (doubly sown, 1280 g/ha); assay type: in vivo, Stellaria media; settings: doubly sown pots, dosage 1280 g/ha, visual scoring after about 3 weeks
Method in brief: as §3

DIGSA = assay: Herbicidal pre-emergence action 2a (greenhouse pots, visual scoring); assay type: in vivo, Digitaria sanguinalis; settings: dosage 320 g/ha, visual scoring after about 3 weeks
Method in brief: as §5

## CCOC(=O)COc1nn(-c2cnccn2)c(-c2cccc(F)c2)c1Br [Example I-02]
STEME [1]
  Post-emergence action against STEME in %: 80%
STEME [2]
  Post-emergence action at 1280 g/ha against STEME in %: 90%
AMARE [3]
  Pre-emergence action at 1280 g/ha against AMARE in %: 100%
ALOMY
  Post-emergence action against ALOMY in %: 80%
ECHCG [4]
  Pre-emergence action at 1280 g/ha against ECHCG in %: 100%
MATIN [5]
  Pre-emergence action at 1280 g/ha against MATIN in %: 100%
VERPE [6]
  Pre-emergence action against VERPE in %: 100%
PHBPU
  Post-emergence action against PHBPU in %: 90%
VERPE [7]
  Post-emergence action against VERPE in %: 80%
MATIN [8]
  Post-emergence action against MATIN in %: 80%
POAAN [9]
  Post-emergence action at 1280 g/ha against POAAN in %: 90%
ECHCG [10]
  Post-emergence action at 1280 g/ha against ECHCG in %: 90%
AMARE [11]
  Pre-emergence action against AMARE in %: 100%
MATIN [12]
  Pre-emergence action against MATIN in %: 90%
POAAN [13]
  Pre-emergence action at 1280 g/ha against POAAN in %: 100%
ECHCG [14]
  Post-emergence action against ECHCG in %: 80%
MATIN [15]
  Post-emergence action at 1280 g/ha against MATIN in %: 90%
AMARE [16]
  Post-emergence action against AMARE in %: 80%
VIOTR
  Post-emergence action against VIOTR in %: 80%
STEME [17]
  Pre-emergence action at 1280 g/ha against STEME in %: 100%
DIGSA
  Pre-emergence action against DIGSA in %: 90%
